Experiments:
fibroblasts (FHN) = assay: Intracellular peroxide level (DCFH-DA probe) in fibroblasts after SIPS; type: cell-based, human; conditions: 3 ppm
Method: Principle: Fibroblasts at confluence contacted or not with the GGP for several days, are subjected to oxidative stress by hydrogen peroxide in the presence or absence of the GGP. This stress is intended to induce premature senescence in cells.
After this initial stress, the cells were detached from the support and returned to culture at low density until confluence. They are then contacted or not with the compound of the invention for 24 hours. At this stage, each set of cultures (with or without the tested compounds) is divided into 2 lots. A first batch (not stressed) is evaluated directly for its concentration of intracellular peroxides (using the probe DCFH-DA). Simultaneously, the other batch (stressed) undergoes a second stress by hydrogen peroxide (weaker than the first) just before being evaluated in the same way regarding the concentration of intracellular peroxides.
The amount of fluorescence measured with this probe is directly proportional to the amount of peroxides present in the cells.

nidogen 1 = assay: Nidogen 1 biosynthesis in fibroblast culture (ELISA); type: cell-based, human; conditions: 3 days, n = 5
Method: Principle: Normal human fibroblasts were brought to confluence, then placed or not in contact with the GGP, at 1 or 2.5 ppm, for 3 days. After this incubation the nidogen 1 content is determined by ELISA in cell homogenates, and divided by the number of cells.

[1] = tested on: Normal human dermal fibroblasts; assay: Mean telomere length of fibroblasts in natural senescence (real-time quantitative PCR); type: cell-based; conditions: 1.65 ppm
Excerpt: The applicant has performed the average length measurement of the telomeres of a culture by a rapid method using PCR (Polymerase Chain Reaction) real-time quantitative.
This method relies on the use of two oligonucleotide primers specific of the telomeric repeat sequence (TTAGGG) and thus capable of hybridizing themselves to each of the two complementary strands of telomeric DNA, and then able to be amplified during the PCR cycles proportionally to the average length of telomeres of the genomic DNA of a given culture. A fluorescent molecule, intercalated into DNA double strand, is used to quantify the phenomenon (hybridization+amplification) at the end of each cycle. The parameter for evaluating the significance of this phenomenon is the Ct, cycle number of hybridization amplification necessary to reach a given fluorescence threshold above background noise.
Each Ct will be converted into an average length of telomeres, with a reference range obtained with successive dilutions from a standard solution of a synthetic oligonucleotide of 84 bases, consisting of 14 repeats of the TTAGGG sequence, each of these dilutions (or point range) being subjected to real-time quantitative PCR.
To be accurate, the assessment must take into account the number of genomes present. The latter will be appreciated by a PCR conducted in parallel with a control gene, 36B4, encoding a ribosomal phosphoprotein with two primers (oligonucleotides) specific for this gene. The Ct obtained in this PCR will be converted into a number of genomes using a standard range made from an oligonucleotide of 75 bases, representing the amplicon obtained with primers specific to 36B4.
Therefore is obtained for each total DNA extracts from a given culture, an average length of telomere per genome.
Principle: Normal human dermal fibroblasts are grown on several cell passages, in contact or not with the GGP until a strong slowdown and little or not proliferative cells. At this stage, cultures are stopped, DNA extracted and the average telomere length measured for each culture.

CC(C)=CCC/C(C)=C/CC/C(C)=C/CC/C(C)=C/CCC(C)O (centres unmarked) [GGP, 6,10,14,18-tetramethylnonadeca-5,9,13,17-tetraen-2-ol]
Endogen peroxides (fibroblasts (FHN); SIPS fibroblasts subjected to a second oxidant stress): 161 +/− 14 UFA/million of cells
% Change/Control of endogen peroxides (fibroblasts (FHN); after SIPS, not stressed again): −40%; p < 0.01
Endogen peroxides (fibroblasts (FHN); after SIPS, not stressed again): 61.2 +/− 2.6 UFA/million of cells
Stimulation % of nidogen 1 biosynthesis (nidogen 1; 1 ppm): +28%
Stimulation % of nidogen 1 biosynthesis (nidogen 1; 2.5 ppm): +94%
Mean telomere length ([1]; presenescent cells, n = 3): 8.35 +/− 0.75 kb/genome
protection against natural telomere erosion (length vs control) ([1]; vs presenescent control): +1.45 kb →
Telomere erosion due to aging ([1]; vs proliferative cells): −2.31 kb; nsd kb/genome
